Assay: gradient 5% acetonitrile 3 min, to 50% in 2 min, to 85% in 15 min, held 3 min, 100 µL/min
Conditions: column: Zorbax Extend-C18 2.1 x 50 mm; eluents: water / acetonitrile, 0.1% formic acid
In short: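 A Zorbax Extend-C18 column (2.1 × 50 mm, 1.8 μm) run at 100 μL/min with water and acetonitrile, both containing 0.1% formic acid, separated mixtures of ~100 pure standards. The HPLC was coupled to a quadrupole time-of-flight mass spectrometer operated in positive and negative ionization mode, with dead and dwell volumes of 40 μL and 900 μL. Each retention time was taken from a computationally picked adduct peak that was then manually inspected.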

| Structure (SMILES) | RP-LC retention time |
| --- | --- |
| Cc1ccc(CN2CCn3c(nn(CC4CC4)c3=O)C2)nc1 | 561 s |
| CCOC(=O)COc1ccccc1C1CC(c2cccs2)=NN1C(=O)c1ccco1 (stereo not given) | 941 s |
| Cc1cc(-c2nnc3sc(COc4ccc(Br)cc4)nn23)n[nH]1 | 786 s |
| Cc1nnc([C@@H]2CC(F)(F)CN2C(=O)c2ccc3ncccc3c2)o1 | 607 s |
| Cc1ccccc1-c1noc(-c2nc(-c3ccncc3)no2)n1 | 1090 s |
| O=C(NC1CCN(c2cc(-c3ccc(F)cc3)[nH]n2)C1)c1ccc2c(c1)OCO2 (stereo not given) | 695 s |
| Cc1ccccc1NC(=O)c1sc(-c2cn(C)c3ncccc23)nc1C | 890 s |
| CCNc1ncnc2sc3c(c12)CCN(C(=O)CCOC)C3 | 610 s |
| CC(C)n1cnc(S(=O)(=O)N2CCC(C(=O)NCc3ccccc3Cl)CC2)c1 | 744 s |
| CC(=O)Nc1ccc(NC(=O)C2CC(=O)N(CCc3c[nH]c4ccc(F)cc34)C2)cc1 (stereo not given) | 675 s |
| Cc1cc(C(=O)N2CCC(c3nc4ccccc4s3)CC2)no1 | 763 s |
| COC(=O)c1ccc2c(=O)n(-c3cc(OC)cc(OC)c3)c(N3CCC(C)CC3)nc2c1 | 1210 s |
| Cc1c(Cl)cccc1N1CC(c2nc3ccccc3[nH]2)CC1=O (stereo not given) | 577 s |
| Cc1ccc(C)c(NS(=O)(=O)c2cc3c(s2)CCN(C(=O)C2CCC2)C3)c1 | 859 s |
| CCc1nncn1C1CCN(S(=O)(=O)c2ccc(F)c(C)c2)CC1 | 715 s |
| Cn1cnc(S(=O)(=O)N2CCC(C(=O)NCc3ccc(Cl)cc3)CC2)c1 | 702 s |
| COc1ccc2c(CCNC(=O)c3cc(OC)c(OC)c(OC)c3)c[nH]c2c1 | 758 s |
| Nc1ncnc2c1c(-c1ccc(Oc3ccccc3)cc1)cn2C1CCCC1 | 1030 s |
| CCc1c(C2CCN(C(=O)Nc3ccc(C)c(C)c3)CC2)noc1N | 793 s |
| O=C(NC(CO)C(O)c1ccc([N+](=O)[O-])cc1)C(Cl)Cl (stereo not given) | 735 s |
| O=C(Cc1cccc(F)c1)N1CCC2(CC1)Nc1ccccc1-n1cccc12 | 998 s |
| COc1ccc(N2CCN(C(=O)c3c(OC)cc(=O)n4c3CCCC4)CC2)cc1 | 660 s |
| CC1CCC(NC(=O)C2CCN(C(=O)c3ncn4c3COC(c3ccccc3)C4)CC2)CC1 (stereo not given) | 816 s |

| Structure (SMILES) | RP-LC retention time |
| --- | --- |
| CC(C)C(=O)Nc1ccc2nc(N3CCN(c4ccccc4F)CC3)cc(C(=O)O)c2c1 | 664 s |
| Cc1ccc2c(c1)N(C(=O)CCC(=O)NCCCN1CC(C)CC(C)C1)CC(C)O2 (stereo not given) | 704 s |
| CCCn1cnc2ccc(-c3noc(-c4cccc(OC)c4)n3)cc21 | 728 s |
| CC(C)(C)C(=O)Nc1cnc(-c2ccc(F)cc2)nc1 | 960 s |
| O=C(Cc1ccc(Cl)cc1)N1CCCn2nc(-c3ccc(Cl)cc3)cc2C1 | 1050 s |
| O=C(NCC(O)c1ccsc1)NC1CCCCC1 (stereo not given) | 658 s |
| CCN1CCN(C(=O)Cc2ccc(Nc3ncc(F)c(Nc4ccc(C(=O)Nc5ccccc5Cl)cc4)n3)cc2)CC1 | 684 s |
| O=C1CC(c2noc(Cc3ccc(F)cc3)n2)CN1c1ccc(F)c(Cl)c1 (stereo not given) | 1040 s |
| CC(=O)N1CCc2ccccc2C1C(=O)NC(C)C (stereo not given) | 672 s |
| CCOc1ccccc1NC(=O)N1CCN(c2cc(C)nc(N3CCOCC3)n2)CC1 | 631 s |
| CN1CC(=O)NC(c2ccccc2Br)C1=O (stereo not given) | 550 s |
| Cc1ccc2nc3c(c(C(=O)NC4CCCC4)c2c1)CCC3 | 690 s |
| COc1ccc(NC(=O)C2CC(=O)N(c3n[nH]c4cccc(F)c34)C2)cc1 (stereo not given) | 717 s |
| O=C(C1CC1)N1CCCn2nc(-c3cccc(F)c3)cc2C1 | 784 s |
| COc1ccc(N2CC(C(=O)Nc3cc(C)nn3C3CCS(=O)(=O)C3)CC2=O)cc1 (stereo not given) | 638 s |
| COc1ccc(NC(=O)CSc2nccc(N3CCN(c4cc(C)ccc4C)CC3)n2)cc1OC | 774 s |
| CCc1cccc(C)c1Nc1c(-c2ccccc2O)nc2ncccn12 | 907 s |
| Cc1cc(-c2nnc(-c3ccc(F)cc3)o2)c(C)n1CC(=O)Nc1ccc2c(c1)OCCO2 | 916 s |
| COCc1nnc(NS(=O)(=O)c2ccc([N+](=O)[O-])cc2)s1 | 702 s |
| CCc1nc(N)n(CC(=O)Nc2ccc(F)cc2C)c(=O)c1C | 626 s |
| Cc1ccnc(N2CCC(C(=O)Nc3ccc(Br)cc3)CC2)n1 | 784 s |
| CC(C)c1nc2ccc(C(=O)NCCCN3CCN(C4CCCCC4)CC3)cc2o1 | 588 s |
| COc1cc(Cl)ccc1C(=O)N1CCC(OC2CCN(C)CC2)CC1 | 606 s |

| Structure (SMILES) | RP-LC retention time |
| --- | --- |
| CC(C)C(=O)N1CCCCCCNC(=O)[C@@H]2CCCC[C@@H]21 | 777 s |
| COc1cc2nccc(Oc3ccc(NC(=O)Nc4ccc(F)cc4F)c(F)c3)c2cc1OC | 782 s |
| COc1cccc2cc(C(=O)Nc3nc(-c4ccccc4)cs3)c(=O)oc12 | 1180 s |
| CCC(=O)NC1Cc2ccccc2C(c2ccccc2)C1 (stereo not given) | 997 s |
| COc1ccccc1-n1c(SCC(=O)Nc2nnc(C)s2)nc2c(c1=O)SCC2 | 645 s |
| Cc1ccc(C2CC(=O)N(c3ccc(F)c(F)c3)C(=O)C2)cc1 | 997 s |
| O=C(NC1CCCCC1)C1CCCN(C(=O)c2ccc(Cl)cc2)C1 (stereo not given) | 855 s |
| COc1cccc(CNC(=O)CN2C(=O)NC(c3ccccc3Cl)C3=C2COC3=O)c1OC (stereo not given) | 739 s |
| CCn1ncc2ccc(C(N)=O)cc21 | 599 s |
| O=C(NC1CCN(c2ccccc2)C1=O)c1cccc(Br)c1 (stereo not given) | 855 s |
| O=C(NCCCN1CCC(N2CCCCC2)CC1)c1ccc2c(c1)NC(=O)C1CCCCN21 (stereo not given) | 537 s |
| Nc1cc([N+](=O)[O-])ccc1N1C(=O)CCCC1=O | 650 s |
| COc1ccc(-c2ccc(=O)[nH]n2)cc1OC | 582 s |
| Cn1ncc2c3ccccc3n(CC(=O)NCCc3cnc[nH]3)c2c1=O | 583 s |
| Cc1ccc2c(c1)N(C(=O)Cn1nc3c4ccccc4ncn3c1=O)CCO2 | 730 s |
| COc1ccc(NC(=O)Cn2cccc2-c2nnc(C3CCC3)o2)cc1Cl | 951 s |
| Cc1cc(C)cc(NC(=O)Cn2cc(-c3nnc(C)o3)c3ccccc32)c1 | 903 s |
| COc1ccc(CNC(=O)N2CCN(Cc3nc4ccc(Cl)cc4o3)CC2)cc1 | 711 s |
| CCN1CCC2(CC1)N=C(c1ccc(Cl)cc1)CC(c1cccc(OC)c1O)N2 (stereo not given) | 621 s |
| Cn1ncc2c(N3CCSCC3)nc(C(=O)NCCc3cccs3)nc21 | 833 s |
| Cc1c(Cl)cccc1NC(=O)Cn1c(=O)n(-c2ccccc2)c(=O)c2c1cc(C)n2C | 927 s |
| COc1cccc(NC(=O)NCCn2c(C(F)(F)F)nc3cccnc32)c1 | 698 s |
| CC(C)n1cnc2cc(CNC(=O)c3ccco3)ccc21 | 568 s |

| Structure (SMILES) | RP-LC retention time |
| --- | --- |
| Cc1cc(C)cc(Oc2cc(N3CCC(C(=O)NCCc4ccccc4)CC3)ncn2)c1 | 986 s |
| Cc1noc(-c2cccc(OC3CN(C(=O)NC4CCCC4)C3)c2)n1 | 850 s |
| O=C1CC(NC(=O)C2(c3ccccc3)CCOCC2)CN1C1CC1 (stereo not given) | 621 s |
| CCN(CC)S(=O)(=O)c1ccc2c(c1)c(=O)c(C(=O)N1CCN(c3ccccn3)CC1)cn2C | 588 s |
| CCC(=O)Nc1ccc(SCC(=O)Nc2ccc(F)c(Cl)c2)nn1 | 772 s |
| CCn1cc(-c2nc(C(=O)Nc3cccc(C#N)c3)cs2)c2cccnc21 | 1030 s |
| CC(C)C(=O)Nc1cnc(-c2ccccc2)nc1 | 814 s |
| CC(=O)c1ccc(NC(=O)Cn2cccc2-c2nc(-c3ccc4c(c3)OCO4)no2)cc1 | 923 s |
| COc1ccc(C2(C(=O)N3CC(F)(F)C[C@H]3CN3CCN(C)CC3)CC2)cc1 | 641 s |
| COC(=O)c1c(C)[nH]c(C(=O)N2CCC(CC(=O)N3CCN(c4ccc(OC)cc4)CC3)CC2)c1C | 702 s |
| CCn1cc(S(=O)(=O)N2CCC(n3c(C)cnc3-c3ccccc3)CC2)cn1 | 631 s |
| O=C(O)Cc1sc(Nc2ccc(F)c(F)c2F)nc1-c1ccccc1 | 977 s |
| CC(C(=O)NCCc1c[nH]c2ccccc12)C1CCN(S(=O)(=O)c2cccs2)CC1 (stereo not given) | 841 s |
| CC1(C)CC(=O)C2=C(C1)Nc1ccccc1N(CC(=O)NCC1CCCO1)C2c1cccs1 (stereo not given) | 754 s |
| COc1cccc(NC(=O)N2CCN(Cc3nc4cc(Cl)ccc4o3)CC2)c1 | 731 s |
| CCC(=O)N1CCc2cc(CNS(=O)(=O)c3ccccc3)ccc21 | 790 s |
| O=C(Nc1ccc2c(c1)N(C(=O)c1cccs1)CC2)c1c(F)cccc1Cl | 857 s |
| CCOc1ccc(S(=O)(=O)N2CCCC(C(=O)NCc3ccccn3)C2)cc1 (stereo not given) | 623 s |
| Cc1ccc2[nH]cc(CCNC(=O)c3ccc(N4CCCC4)c(S(=O)(=O)N4CCCC4)c3)c2c1 | 998 s |
| Cn1ncc2c(N3CCCC3)nc(C(=O)NCc3ccc(Cl)cc3)nc21 | 858 s |
| CCn1c(=O)n(CC(=O)N2CCN(c3ccccn3)CC2)c(=O)c2cnc(-c3ccccc3)nc21 | 697 s |
